Series [1] deals with A-375. Nature of the series: Antiproliferative activity against human A375 cells assessed as reduction in cell viability. In kind it is functional, cell-based.
Series [2] deals with T1, von Hippel-Lindau disease tumor suppressor/Dual specificity mitogen-activated protein kinase kinase 2/Dual specificity mitogen-activated protein kinase kinase 1 (Homo sapiens) (UniProt P36507+Q02750+P40337). Nature of the series: Protac activity at VHL/MEK in human A375 cells assessed as MEK1 degradation at 10 uM incubated for 16 hrs in presence of poly(I:C) stimulation by Surefire assay relative to control. In kind it is cell-based.
T1 sequence (P36507 whole entry, looked up): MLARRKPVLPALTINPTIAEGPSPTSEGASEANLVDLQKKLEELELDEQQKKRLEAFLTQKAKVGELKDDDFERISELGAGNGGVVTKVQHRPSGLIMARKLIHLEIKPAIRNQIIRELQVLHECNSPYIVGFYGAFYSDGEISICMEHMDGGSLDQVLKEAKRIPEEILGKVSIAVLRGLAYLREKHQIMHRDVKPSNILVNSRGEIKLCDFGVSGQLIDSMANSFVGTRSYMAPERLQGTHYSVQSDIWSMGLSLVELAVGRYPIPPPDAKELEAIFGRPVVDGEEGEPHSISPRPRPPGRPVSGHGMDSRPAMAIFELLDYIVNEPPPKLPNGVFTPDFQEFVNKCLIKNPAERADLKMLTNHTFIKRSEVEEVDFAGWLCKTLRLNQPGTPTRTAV
T1 sequence (P40337 whole entry, looked up): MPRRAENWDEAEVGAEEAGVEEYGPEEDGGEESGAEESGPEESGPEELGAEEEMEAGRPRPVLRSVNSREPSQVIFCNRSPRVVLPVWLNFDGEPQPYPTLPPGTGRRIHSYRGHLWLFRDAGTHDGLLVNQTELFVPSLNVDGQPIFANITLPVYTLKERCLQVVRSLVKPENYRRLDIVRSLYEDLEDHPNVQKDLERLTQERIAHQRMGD
T1 sequence (Q02750 whole entry, looked up): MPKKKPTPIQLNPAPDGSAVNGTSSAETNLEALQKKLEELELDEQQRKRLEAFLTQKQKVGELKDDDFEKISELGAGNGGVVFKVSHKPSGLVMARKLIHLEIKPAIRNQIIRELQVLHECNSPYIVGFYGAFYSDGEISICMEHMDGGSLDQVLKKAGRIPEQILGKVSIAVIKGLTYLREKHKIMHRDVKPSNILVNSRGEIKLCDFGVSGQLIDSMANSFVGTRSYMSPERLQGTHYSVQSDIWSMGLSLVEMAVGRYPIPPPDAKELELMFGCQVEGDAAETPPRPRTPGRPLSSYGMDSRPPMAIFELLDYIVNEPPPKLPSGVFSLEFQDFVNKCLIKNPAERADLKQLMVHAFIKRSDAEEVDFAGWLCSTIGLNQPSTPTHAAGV

Series [3] addresses T1, von Hippel-Lindau disease tumor suppressor/Dual specificity mitogen-activated protein kinase kinase 2/Dual specificity mitogen-activated protein kinase kinase 1 (Homo sapiens). Nature of the series: Protac activity at VHL/MEK in human A375 cells assessed as reduction in ERK1/2 phosphorylation at 10 uM incubated for >=8 hrs in presence of poly(I:C) stimulation by Surefire assay relative to control. In kind it is cell-based.

For series [4] the target is unchanged. The series is described as follows: Protac activity at VHL/MEK in human A375 cells assessed as MEK2 degradation at 10 uM incubated for 16 hrs in presence of poly(I:C) stimulation by immunoblotting analysis. In kind it is cell-based. On the technique in general: Immunoblotting shows a protein as a band on a membrane.
For series [5], the system named is A-375. The series is described as follows: Antiproliferative activity against human A375 cells assessed as growth inhibition at 10 uM measured up to 72 hrs by IncuCyte zoom live cell analysis. In kind it is functional, cell-based.
The target of series [6] is T1, von Hippel-Lindau disease tumor suppressor/Dual specificity mitogen-activated protein kinase kinase 2/Dual specificity mitogen-activated protein kinase kinase 1 (Homo sapiens). Nature of the series: Protac activity at VHL/MEK in human A375 cells assessed as reduction in ERK1/2 phosphorylation at 10 uM incubated for 2 hrs in presence of poly(I:C) stimulation by Surefire assay. Type of series: cell-based.

For series [7] the target is unchanged. The series is described as follows: Protac activity at VHL/MEK in human A375 cells assessed as MEK1 degradation at 10 uM incubated for 2 hrs in presence of ploy(I:C) stimulation by Surefire assay. Type of series: cell-based.
Series [8] has the same target. Nature of the series: Protac activity at VHL/MEK in human A375 cells assessed as MEK1 degradation at 1 uM incubated for 16 hrs in presence of poly(I:C) stimulation by Surefire assay relative to control. Type of series: cell-based.
The target is the same in series [9]. Nature of the series: Protac activity at VHL/MEK in human A375 cells assessed as reduction in IL6 secretion at 10 uM incubated for 12 hrs followed by poly(I:C) treatment and measured after 4 hrs by AlphaLISA assay. Type of series: cell-based. On the technique in general: Bead proximity is the source of the signal in Alpha formats.
For series [10] the target is unchanged. The series is described as follows: Protac activity at VHL/MEK in human A375 cells assessed as maximal MEK1 degradation at 10 uM incubated for 8 hrs in presence of ploy(I:C) stimulation by Surefire assay. Type of series: cell-based.
The target is the same in series [11]. Nature of the series: Protac activity at VHL/MEK in human A375 cells assessed as […] at <10 uM incubated for 12 hrs followed by poly(I:C) treatment and measured after 4 hrs by Surefire assay. Type of series: cell-based.
The target is the same in series [12]. Nature of the series: Protac activity at VHL/MEK in human A375 cells assessed as MEK1 degradation at 1 to 10 uM incubated for 12 hrs followed by poly(I:C) treatment and measured after 4 hrs by Surefire assay. In kind it is cell-based.
The target is the same in series [13]. Nature of the series: Protac activity at VHL/MEK in human A375 cells assessed as MEK1 degradation at 10 uM incubated for 16 hrs in presence of poly(I:C) stimulation by immunoblotting analysis. In kind it is cell-based.
The target in series [14] is T2, Dual specificity mitogen-activated protein kinase kinase 1 (Homo sapiens, UniProt Q02750). Nature of the series: Inhibition of MEK1 (unknown origin) incubated for 60 mins in presence of ATP by Kinase Glo luminescence assay. In general terms: In Kinase-Glo more light means more ATP remaining.
T2 sequence (Q02750 whole entry): as the sequence (Q02750 whole entry, looked up) above
Series [15] can be described thus: Lipophilicity, log D of compound. In kind it is physicochemical. The conditions noted are these: octanol/water.
Series [16] can be described thus: Aqueous solubility of the compound in buffer at pH 7.4. In kind it is physicochemical.
In series [17] the target is T2, Dual specificity mitogen-activated protein kinase kinase 1. The series is described as follows: Inhibition of MEK1 in human A375 cells assessed as reduction in IL6 secretion at 1 to 10 uM incubated for 12 hrs followed by poly(I:C) treatment and measured after 4 hrs by AlphaLISA assay. In kind it is cell-based.
Series [18] shares this target. The series is described as follows: Inhibition of MEK1 in human A375 cells assessed as inhibition of ERK1/2 phosphorylation at 1 to 10 uM incubated for 12 hrs followed by poly(I:C) treatment and measured after 4 hrs by Surefire assay. In kind it is cell-based.
The subject of series [19] is A-375. The series is described as follows: Reduction in MEK1 protein expression in human A375 cells at 10 uM incubated for 16 hrs in presence of poly(I:C) stimulation by Surefire assay. In kind it is functional, cell-based.
The target in series [20] is T2, Dual specificity mitogen-activated protein kinase kinase 1. Nature of the series: Inhibition of MEK1 in human A375 cells assessed as reduction in ERK1/2 phosphorylation at 10 uM incubated for 1 to 16 hrs in presence of poly(I:C) stimulation by Surefire assay. In kind it is cell-based.
Series [21] relates to A-375. Nature of the series: Reduction in MEK1 protein level in human A375 cells at 100 pM to 10 uM incubated for 12 hrs followed by poly(I:C) treatment and measured after 4 hrs by Surefire assay relative to untreated control. In kind it is functional.
The target of series [22] is T1, von Hippel-Lindau disease tumor suppressor/Dual specificity mitogen-activated protein kinase kinase 2/Dual specificity mitogen-activated protein kinase kinase 1 (Homo sapiens). Nature of the series: Protac activity at VHL/MEK in human A375 cells assessed as MEK1 degradation at 10 uM incubated up to 8 hrs in presence of poly(I:C) stimulation by Surefire assay. In kind it is cell-based.

One may read the IC50 as the midpoint of a concentration-inhibition curve. Broadly, the inhibition is the share of the control response that was lost under treatment. In general, logD refers to the decadic logarithm of the distribution of all forms, ionised or not, between an organic phase and buffer at a given pH. A lower logD goes with a more hydrophilic compound. As a reminder, the solubility is the dissolved amount per volume that the medium holds. A low value points to a poorly soluble substance.

Calls of active or inactive are those of the source. The rule behind the calls is not given here.

As for `O=C(c1ccc(F)c(F)c1Nc1ccc(I)cc1F)N1CC(O)([C@@H]2CCCCN2)C1` [COBIMETINIB], the IC50 with A-375 [1] was 5 nM.
As to `Cc1ncsc1-c1ccc([C@H](C)NC(=O)[C@@H]2C[C@@H](O)CN2C(=O)[C@@H](NC(=O)COCCOCCOCCNC(=O)COc2ccc(S(=O)(=O)Nc3cc(C)c(=O)n(C)c3Nc3ccc(I)cc3F)cc2)C(C)(C)C)cc1`, the Activity is 95% in [2] and 72% in [8]. For the same molecule, the inhibition in [3] was determined as 100%. For the same molecule, the outcome in series [4], in series [6], in series [7], in series [9], in series [10] and in series [11] was Active. Moreover, the result in [12] and in [13] was Active. In the series with A-375 [5], the “growth inhibition (GI)” value was “Active”. In addition, the IC50 in series [14] was 158 nM.
For `CC(=O)Nc1cccc(-n2c(=O)n(C3CC3)c(=O)c3c(Nc4ccc(I)cc4F)n(C)c(=O)c(C)c32)c1` [TRAMETINIB], the IC50 with A-375 [1] was determined as 0.74 nM.
`Cc1ncsc1-c1ccc([C@H](C)NC(=O)[C@@H]2C[C@@H](O)CN2C(=O)[C@@H](NC(=O)COCCOCCOCCNC(=O)CCc2ccc(S(=O)(=O)Nc3cc(C)c(=O)n(C)c3Nc3ccc(I)cc3F)cc2)C(C)(C)C)cc1`: the Activity turned out to be 94% in series [2] and 90% in [8]. Moreover, the inhibition in [3] worked out at 100%. Besides, the outcome in [4], in series [6], in series [7], in [9], in [10] and in [11] was Active. Besides, the outcome in series [12] and in series [13] was Active. In addition, the “growth inhibition (GI)” value with A-375 [5] was “Active”. The IC50 in series [14] is 100 nM.
On to `Cc1ncsc1-c1ccc([C@H](C)NC(=O)[C@@H]2C[C@@H](O)CN2C(=O)[C@@H](NC(=O)COCCOCCOCCOCCNC(=O)CCc2ccc(S(=O)(=O)Nc3cc(C)c(=O)n(C)c3Nc3ccc(I)cc3F)cc2)C(C)(C)C)cc1`, for which the Activity in series [2] was 96%; in series [8] it was 91%. In series [3], the inhibition amounted to 100%. Besides, the result in [4], in series [6], in series [7], in series [9], in series [10] and in [11] was Active. The outcome in series [12] and in series [13] was Active. Besides, in the series on A-375 [5], the “growth inhibition (GI)” value was “Active”. The same molecule displayed a logD in series [15] of 4.3. Further, in series [16], the solubility was under 1.5 µM. For the same molecule, the IC50 in [14] was 100 nM.
As for `Cc1cc(NS(=O)(=O)c2ccccc2)c(Nc2ccc(I)cc2F)n(C)c1=O`, the inhibition result (in [17]; in series [18]; with A-375 [19]; in series [20]) was “Active” in each case. For the same molecule, the Activity is 1% in series [2] and -7% in series [8]. Further, the result in series [4], in [22] and in series [13] was inactive. In addition, the “growth inhibition (GI)” value in the series with A-375 [5] was “Active”. In series [15], this molecule gave a logD of 3.9. The “inhibition (INH)” value in the series with A-375 [21] turned out to be 20%. Besides, the IC50 in [14] was 398 nM.

Values taken from ChEMBL document CHEMBL4376845, “Design, Synthesis, and Biological Evaluation of MEK PROTACs” (J Med Chem, 2020).
